Experimental data reported in PMC10279527, “Structural basis of metabolite transport by the chloroplast outer envelope channel OEP21” (Nature Structural & Molecular Biology, 2023).
“And” between values parts separate entries of the source, which are not always exact repeats. Equal values may be shown once.

Experiments:
Format in all cases: binding, garden pea
OEP21ΔL5 = target: T1, OEP21ΔL5 (Pisum sativum, UniProt Q9SM57, DEL70-80); assay: NMR titrations of OEP21ΔL5 with metabolites; settings: for Kd: KDs dLoop + GAP, dLoop (OEP21ΔL5), unit inferred
T1 construct: made in house; host or cells: Escherichia coli BL21(DE3) (described for OEP21)

OEP21 wt = target: T2, OEP21 wt (Pisum sativum, UniProt Q9SM57); assay: NMR titrations (2D-[15N,1H]-TROSY) of OEP21 with metabolites
T2 construct: made in house

OEP21 = OEP21 (Pisum sativum, UniProt Q9SM57); assay: CD-detected thermal melting of OEP21 in presence of metabolites; design: made in house; settings: for raw CD / rel CD: 500 uM; for Melting point: ED Fig. 4a

**Q.** What does the source list for `O=C[C@H](O)COP(=O)(O)O` [GAP, D-glyceraldehyde-3-phosphate]?
**A.** Kd (OEP21ΔL5; Mean, mean): 730 µM; Kd (OEP21ΔL5; individual KDs): 702 µM and 649 µM and 747 µM and 728 µM and 616 µM and 657 µM and 634 µM and 730 µM and 906 µM and 897 µM and 764 µM; effect of L5 on binding affinity (in words) (OEP21ΔL5; NMR, Fig. 3h, OEP21 versus OEP21ΔL5): approximately a fourfold increase in binding affinity; Kd (OEP21 wt; KD GAP - Loop5, Loop5, individual KDs): 2700 µM and 4360 µM and 2480 µM; Kd (OEP21 wt; KD GAP - Loop5, Mean, Loop5, mean): 3180 µM; Kd (OEP21 wt; KD, NMR, Fig. 3b): ~150 µM; Kd (OEP21 wt; KDs GAP+Mg, Mean, with Mg, mean): 709 µM; Kd (OEP21 wt; KDs GAP+Mg, with Mg, individual KDs): 310 µM and 690 µM and 450 µM and 960 µM and 920 µM and 1170 µM and 470 µM and 980 µM and 750 µM and 710 µM and 670 µM; Kd (OEP21 wt; KDs OEP21wt + GAP, Mean, OEP21wt, mean, unit inferred): 152 µM; Kd (OEP21 wt; KDs OEP21wt + GAP, OEP21wt, individual KDs, unit inferred): 154 µM and 180 µM and 186 µM and 146 µM and 177 µM and 143 µM and 138 µM and 137 µM and 127 µM and 149 µM; effect of Mg^2+ on binding affinity (in words) (OEP21 wt; NMR, Fig. 3h, addition of Mg^2+): decreased the binding affinity to a similar extent; Kd (OEP21 wt; affinity of residues in L5, NMR, Fig. 3h): ~3000 µM; fold increase in Kd (OEP21 wt; individual determinations KD1-KD12, relative to ATP pH7): 18.8725 and 22.0588 and 22.7941 and 17.8922 and 21.6912 and 17.5245 and 16.9118 and 16.7892 and 15.5637 and 18.2598; fold increase in Kd, mean values (OEP21 wt; mean, relative to ATP pH7): 18.7; raw CD (OEP21; 22.5 °C): -23.3707; rel CD (OEP21; 22.5 °C): 0.97; raw CD (OEP21; 23 °C): -23.5919; rel CD (OEP21; 23 °C): 0.9806; raw CD (OEP21; 23.5 °C): -24.399; rel CD (OEP21; 23.5 °C): 1.019; raw CD (OEP21; 24 °C): -24.3596; rel CD (OEP21; 24 °C): 1.017; raw CD (OEP21; 25 °C): -24.3798; rel CD (OEP21; 25 °C): 1.018; raw CD (OEP21; 26 °C): -24.239; rel CD (OEP21; 26 °C): 1.011; raw CD (OEP21; 27 °C): -24.36; rel CD (OEP21; 27 °C): 1.017; raw CD (OEP21; 28 °C): -24.2279; rel CD (OEP21; 28 °C): 1.011; raw CD (OEP21; 28.5 °C): -24.3095; rel CD (OEP21; 28.5 °C): 1.015; raw CD (OEP21; 29 °C): -23.5401; rel CD (OEP21; 29 °C): 0.9781; raw CD (OEP21; 30 °C): -23.385; rel CD (OEP21; 30 °C): 0.9707; raw CD (OEP21; 31 °C): -24.0555; rel CD (OEP21; 31 °C): 1.003; raw CD (OEP21; 32 °C): -24.3068; rel CD (OEP21; 32 °C): 1.015; raw CD (OEP21; 33 °C): -24.4089; rel CD (OEP21; 33 °C): 1.019; raw CD (OEP21; 34 °C): -23.805; rel CD (OEP21; 34 °C): 0.9907; raw CD (OEP21; 35 °C): -24.5097; rel CD (OEP21; 35 °C): 1.024; raw CD (OEP21; 36 °C): -24.0481; rel CD (OEP21; 36 °C): 1.002; raw CD (OEP21; 37 °C): -23.8199; rel CD (OEP21; 37 °C): 0.9914; raw CD (OEP21; 38 °C): -23.8252; rel CD (OEP21; 38 °C): 0.9917; raw CD (OEP21; 39 °C): -23.7051; rel CD (OEP21; 39 °C): 0.986; raw CD (OEP21; 68 °C): -6.585; rel CD (OEP21; 68 °C): 0.1707; raw CD (OEP21; 68.5 °C): -6.193; rel CD (OEP21; 68.5 °C): 0.1521; raw CD (OEP21; 69 °C): -6.288; rel CD (OEP21; 69 °C): 0.1566; raw CD (OEP21; 70 °C): -5.958; rel CD (OEP21; 70 °C): 0.1409; raw CD (OEP21; 70.5 °C): -5.84; rel CD (OEP21; 70.5 °C): 0.1352; raw CD (OEP21; 71 °C): -5.586; rel CD (OEP21; 71 °C): 0.1232; raw CD (OEP21; 71.5 °C): -5.682; rel CD (OEP21; 71.5 °C): 0.1277; raw CD (OEP21; 72 °C): -5.192; rel CD (OEP21; 72 °C): 0.1044; raw CD (OEP21; 73 °C): -5.167; rel CD (OEP21; 73 °C): 0.1032; raw CD (OEP21; 74 °C): -4.493; rel CD (OEP21; 74 °C): 0.07111; raw CD (OEP21; 74.5 °C): -4.638; rel CD (OEP21; 74.5 °C): 0.078; raw CD (OEP21; 75 °C): -4.942; rel CD (OEP21; 75 °C): 0.09249; raw CD (OEP21; 75.5 °C): -4.618; rel CD (OEP21; 75.5 °C): 0.07706; raw CD (OEP21; 76 °C): -4.509; rel CD (OEP21; 76 °C): 0.07187; raw CD (OEP21; 77 °C): -4.747; rel CD (OEP21; 77 °C): 0.0832; raw CD (OEP21; 77.5 °C): -4.466; rel CD (OEP21; 77.5 °C): 0.06981; raw CD (OEP21; 78 °C): -4.843; rel CD (OEP21; 78 °C): 0.08778; raw CD (OEP21; 78.5 °C): -4.206; rel CD (OEP21; 78.5 °C): 0.05742; raw CD (OEP21; 79 °C): -3.995; rel CD (OEP21; 79 °C): 0.0474; raw CD (OEP21; 79.5 °C): -4.497; rel CD (OEP21; 79.5 °C): 0.07129; raw CD (OEP21; 80 °C): -4.058; rel CD (OEP21; 80 °C): 0.05036; raw CD (OEP21; 81 °C): -4.059; rel CD (OEP21; 81 °C): 0.05042; raw CD (OEP21; 82 °C): -4.217; rel CD (OEP21; 82 °C): 0.05795; raw CD (OEP21; 82.5 °C): -4.026; rel CD (OEP21; 82.5 °C): 0.04886; raw CD (OEP21; 83 °C): -4.494; rel CD (OEP21; 83 °C): 0.07116; raw CD (OEP21; 83.5 °C): -4.549; rel CD (OEP21; 83.5 °C): 0.07377; raw CD (OEP21; 84 °C): -4.1838; rel CD (OEP21; 84 °C): 0.05637; raw CD (OEP21; 85 °C): -3.693; rel CD (OEP21; 85 °C): 0.03299; raw CD (OEP21; 86 °C): -3.539; rel CD (OEP21; 86 °C): 0.02569; raw CD (OEP21; 87 °C): -3.736; rel CD (OEP21; 87 °C): 0.03505; raw CD (OEP21; 87.5 °C): -3.636; rel CD (OEP21; 87.5 °C): 0.03029; raw CD (OEP21; 88 °C): -3.641; rel CD (OEP21; 88 °C): 0.03053; raw CD (OEP21; 88.5 °C): -3.975; rel CD (OEP21; 88.5 °C): 0.04642; raw CD (OEP21; 89 °C): -3.567; rel CD (OEP21; 89 °C): 0.02702; raw CD (OEP21; 90 °C): -3.821; rel CD (OEP21; 90 °C): 0.03908; raw CD (OEP21; 90.5 °C): -3.627; rel CD (OEP21; 90.5 °C): 0.02984; raw CD (OEP21; 91 °C): -4.011; rel CD (OEP21; 91 °C): 0.04814; raw CD (OEP21; 91.5 °C): -3.609; rel CD (OEP21; 91.5 °C): 0.02901; raw CD (OEP21; 92 °C): -3.4371; rel CD (OEP21; 92 °C): 0.02081; raw CD (OEP21; 93 °C): -3.657; rel CD (OEP21; 93 °C): 0.03128; raw CD (OEP21; 94 °C): -3.717; rel CD (OEP21; 94 °C): 0.03414; raw CD (OEP21; 95 °C): -3.854; rel CD (OEP21; 95 °C): 0.04065; raw CD (OEP21; 96 °C): -3.335; rel CD (OEP21; 96 °C): 0.01596; raw CD (OEP21; 97 °C): -3.649; rel CD (OEP21; 97 °C): 0.0309; raw CD (OEP21; 98 °C): -3.661; rel CD (OEP21; 98 °C): 0.03146; raw CD (OEP21; 99 °C): -3.437; rel CD (OEP21; 99 °C): 0.0208; raw CD (OEP21; 100 °C): -3.04; rel CD (OEP21; 100 °C): 0.001918; Melting point (OEP21; OEP21 with 0.5 mM metabolite, CD at 215 nm, Apo 58.5): 59.2 ｡C; Melting point (OEP21; OEP21 with 1 mM GAP): 60.2 ｡C
